Reference: US20070219159A1, “CYCLODEXTRIN COMPOSITIONS AND METHODS OF TREATING VIRAL INFECTIONS” (priority 2002, published 2007)
Converted amounts (≈) assume the structure as drawn. Like-named read-outs stand apart in the source and are kept apart here.

Columns and labels:
[1] = tested on: HCV; experiment: In vitro anti-HCV assay in HCV RNA-replicating cell line AVA5; assay type: cell-based; conditions: HCV
Method: The antiviral activity of test compounds were assayed in the stably HCV RNA-replicating cell line. AVA5, derived by transfection of the human hepatoblastoma cell line, Huh^7 (Blight et al., 2000). Experimental drugs were added to dividing cultures once daily for three days. Media was changed with each addition of compound. Cultures generally started the assays at 50% confluence and reached confluence during the last day of treatment. HCV RNA and cellular β-actin RNA levels were assessed 24 hours after the last dose of compound using dot blot hybridization. Assays were conducted using a single dose of test compound (in triplicate cultures).
Both HCV and β-actin RNA levels in the treated cultures were expressed as a percentage of the mean levels of RNA detected in untreated cultures. β-actin RNA levels were used both as a measure of toxicity, and to normalize the amount of cellular RNA in each sample. A level of 30% or less HCV RNA (relative to control cultures) was considered to be a positive antiviral effect, and a level of 50% or less β-actin RNA (relative to control cultures) is considered to be a cytotoxic effect.
Dividing cultures of AVAB cells were treated once daily for three days (media was changed with each addition of compound) with 4 concentrations of test compounds (3 cultures per concentration). A total of 6 untreated control cultures, and triplicate cultures treated with 10, 3, and 1 IU/ml α-interferon (active antiviral with no cytotoxicity), and 100, 10, and 1 μM ribavir ([…]) served as controls. HCV RNA and cellular β-actin FNA levels were assessed 24 hours after the last dose of compound using dot blot hybridization. β-actin RNA levels were used to normalize the amount of cellular RNA in each sample.
Toxicity analyses were performed on separate plates from those used for the antiviral assays. Cells for the toxicity analyses were cultured and treated with test compounds with the same schedule and under identical culture conditions used for the antiviral evaluations. Each compound was tested at 4 concentrations, each in triplicate cultures. Uptake of neutral red dye was used to determine the relative level of toxicity 24 hours following the last treatment. The absorbance of internalized dye at […] (A510) was used for the quantitative analysis. Values in test cultures were compared to 9 cultures of untreated cells maintained on the same plate as the test cultures.
Assays similar to those described above were conducted.

[2] = tested on: dlsptk (an ACV-resistant, tk deletion mutant of HSV-1); assay type: cell-based; conditions: MOI 10
[3] = tested on: HSV-1 strain KOS1.1; experiment: CPE reduction assay in Vero cells, HSV-1; assay type: cell-based
[4] = tested on: HSV-1; experiment: HSV-1 plaque formation / IC50 study in Vero cells; assay type: cell-based; conditions: for Plaques ± Std. Dev.: HSV-1 plaques per well, 48 hours
[5] = tested on: Vero cells; experiment: Cell viability by LDH release assay; assay type: cell-based; conditions: 48 hours
Method: FIG. 3 depicts the effects of ACV alone (400 μg/ml) and β-CD alone (8 mg/ml) on the viability of Vero cells as monitored by the LDH release assay after 24 hours of treatments (A); and after 48 hours of treatments (B). All data represents means+SD of two separate experiments.
Cell viability assay. Cell viability was determined fluorometrically by estimating the release of LDH into the media (Moran and Schnellman, 1996). LDH activity was based on the reduction of pyruvate to lactate. The concomitant oxidation of NADH results in a decrease in the fluorescence emission at 450 nm with excitation wavelength 355 nm, and the rate of disappearance of NADH is indicative of LDH activity.
To study the effects of formulations on viability of preformed monolayers, 3 to 4×10^6 Vero cells were added to 1× MEM-5% FBS in T75 flasks. […] Used media were replaced with 15 ml of treatment media, containing 5× MEM-FBS diluted to 1× with water (control), acyclovir stock (400 μg/ml), or β-CD stock (8 mg/ml in water). […]
Reaction solution was made fresh for each experiment by mixing 0.4 ml of 16.2 mM pyruvate with 10 ml of 0.2 mM NADH in phosphate buffer (pH 7.5). […] The amount of LDH calculated for either condition was then compared with and expressed as a percentage of the total LDH present.
Used media were replaced with 15 ml/flask or 2.5 ml/well of treatment media, containing 5× MEM-FBS diluted to 1× with water (control), and […]CD stock. […] Live cells are distinguished by the presence of intracellular esterase activity, as determined by the enzymatic conversion of calcein-AM (nonfluorescent) to calcein (green fluorescence). EthD-1 enters cells with damaged cell membranes and binds to nucleic acids producing red fluorescence to identify dead cells. […] For LDH assays, cells were trypsinized, resuspended in fresh 1× medium, kept at 37° C.-5% CO2 atmosphere, and total LDH present in cells and medium was determined after lysing the cells with 350 μM digitonin. The amount of LDH calculated for either condition was then compared with and expressed as a percentage of the total LDH present. […]

[6] = Aqueous solubility; assay type: physicochemical
[7] = tested on: Vero cells; conditions: 48 hours
[8] = Human alphaherpesvirus 1, Vero, read-out: % of control ± SEM

OC[C@H]1O[C@@H]2O[C@H]3[C@H](O)[C@@H](O)[C@@H](O[C@H]4[C@H](O)[C@@H](O)[C@@H](O[C@H]5[C@H](O)[C@@H](O)[C@@H](O[C@H]6[C@H](O)[C@@H](O)[C@@H](O[C@H]7[C@H](O)[C@@H](O)[C@@H](O[C@H]8[C@H](O)[C@@H](O)[C@@H](O[C@H]1[C@H](O)[C@H]2O)O[C@@H]8CO)O[C@@H]7CO)O[C@@H]6CO)O[C@@H]5CO)O[C@@H]4CO)O[C@@H]3CO [BCD, β-cyclodextrin]
S.I. for HCV [1]: 1.13
reduction of ACV-resistant virus yield ([2]; 6.4 mg/ml BCD, 24 hours): approximately 10^3 PFU
effect on yield of acyclovir-resistant dlsptk virus (FIG. 2) ([2]; 20 μM (4.5 μg/ml) ACV or 6.4 mg/ml β-CD for 24 hours): lowered the yield
protection of Vero cells by inhibition of viral CPE ([3]; HSV-1, MOI 0.001 and 0.1, BCD 7-8 mg/ml): almost complete protection
inhibition of infection, direct microscopy and crystal violet staining ([3]; HSV-1, MOI 2.0 (data not shown)): inhibited infection
anti-herpes effects at high multiplicity of infection ([3]; HSV-1, MOI >50, BCD 7-8 mg/ml): exhibited anti-herpes effects
anti-HSV activity compared with acyclovir ([3]; β-CD 7.2 mg/ml): comparable to acyclovir in the range of 200 to 400 μg/ml
Plaques ± Std. Dev. ([4]; BCD 3.5 mg/ml): 119.0 ± 1.0
Plaques ± Std. Dev. ([4]; BCD 4.0 mg/ml): 111.0 ± 6.6
Plaques ± Std. Dev. ([4]; BCD 4.5 mg/ml): 84.0 ± 10.53
Plaques ± Std. Dev. ([4]; BCD 5.0 mg/ml): 74.67 ± 4.51
Plaques ± Std. Dev. ([4]; BCD 5.5 mg/ml): 54.67 ± 5.68
Plaques ± Std. Dev. ([4]; BCD 6.0 mg/ml): <10
IC50 ([4]; Human alphaherpesvirus 1, Vero, 48 h): 5100 µg/mL (≈ 4.49 mM)
activity at 3500 µg/mL [4, 8]: 85.2 ± 0.58%
activity at 4000 µg/mL [4, 8]: 79.5 ± 3.8%
activity at 4500 µg/mL [4, 8]: 60.1 ± 6.08%
activity at 5000 µg/mL [4, 8]: 53.5 ± 2.6%
activity at 5500 µg/mL [4, 8]: 39.1 ± 3.28%
cell viability (LDH assay) ([5]; 8.0 mg/ml BCD): 68.57%
decrease in cell viability ([5]; β-CD 8 mg/ml, Vero cells): 30-40%
solubility ([6]; read-out: concentration at which solubility becomes a limiting issue): > 8000 µg/mL
solubility ([6]; water, read-out: concentrations at which insoluble in water): > 10000 µg/mL
cell viability (normalized to control cells) ([7]; 5.5 mg/ml BCD): 91.23%
cell viability (normalized to control cells) ([7]; 7.2 mg/ml BCD): 84.89%
cytotoxicity ([7]; maximum concentration of BCD): < 15%
